Like-named read-outs stand apart in the source and are kept apart here. Residues, ends and D or L forms follow the SMILES beside them.
What was measured:
hNTS2R = hNTS2R (Homo sapiens, UniProt O95665); test: radioligand competition binding with [3H]UR-MK300 at intact HEK293T-hNTS2R cells; settings: [3H]UR-MK300 c = 10 nM
Experimental: Two days prior to the experiment, white 96-well plates with clear bottoms (Costar, catalog no. 3610) were treated with poly-D-lysine hydrobromide (Sigma-Aldrich) for 10 min. The wells were washed with H2O and the plates were dried on air at rt overnight. […] After removal of the glutaraldehyde solution, the wells were washed twelve times with H2O and two times with culture medium (150–300 µL). […] On the day of the experiment, the culture medium was carefully removed using a multi-channel pipette (Transferpette S-12, Brand, Wertheim, Germany) and the cells were washed once with Dulbecco’s phosphate-buffered saline (D-PBS) containing Ca^2+ and Mg^2+ (1.8 mM CaCl2, 2.68 mM KCl, 1.47 mM KH2PO4, 3.98 mM MgSO4, 136.9 mM NaCl and 8.06 mM Na2HPO4) (200 μL, rt) followed by the careful pre-filling of the wells with 180 µL (total binding) or 160 µL (unspecific and competition binding) of D-PBS, supplemented with 1% BSA and 100 μg/mL bacitracin (Serva, Heidelberg, Germany) (in the following referred to as binding buffer). To determine total binding, 20 µL of a solution of the radioligand in binding buffer (10-fold concentrated compared to the final concentration) were added. […] To determine the displacing effect of a compound of interest, 20 µL of a solution of the respective compound in binding buffer (10-fold concentrated) and 20 µL of a 10-fold concentrated solution of the radioligand in binding buffer were added. During the incubation period of 2 h at 23 °C, the plates were gently shaken. […] The plates were sealed with a transparent sealing tape (permanent seal for microplates, PerkinElmer, product no. 1450–461) and turned upside down several times to achieve complete mixing. Prior to the measurement of the radioactivity with a MicroBeta2 plate counter (PerkinElmer), the plates were kept in the dark for at least 1 h. All experiments were performed in triplicate.

hNTS1R = molecular target: T1, hNTS1R (Homo sapiens, UniProt P30989); test: radioligand competition binding with [3H]UR-MK300 at intact HT-29 cells; settings: for Ki / pKi ± SD NTS1R: [3H]UR-MK300 c = 1 nM, HT-29 cells, 23 °C
T1 construct: intact HT-29 colon carcinoma cells expressing the hNTS1R; host or cells: HT-29 human colon carcinoma cells
T1 sequence (P30989 whole entry): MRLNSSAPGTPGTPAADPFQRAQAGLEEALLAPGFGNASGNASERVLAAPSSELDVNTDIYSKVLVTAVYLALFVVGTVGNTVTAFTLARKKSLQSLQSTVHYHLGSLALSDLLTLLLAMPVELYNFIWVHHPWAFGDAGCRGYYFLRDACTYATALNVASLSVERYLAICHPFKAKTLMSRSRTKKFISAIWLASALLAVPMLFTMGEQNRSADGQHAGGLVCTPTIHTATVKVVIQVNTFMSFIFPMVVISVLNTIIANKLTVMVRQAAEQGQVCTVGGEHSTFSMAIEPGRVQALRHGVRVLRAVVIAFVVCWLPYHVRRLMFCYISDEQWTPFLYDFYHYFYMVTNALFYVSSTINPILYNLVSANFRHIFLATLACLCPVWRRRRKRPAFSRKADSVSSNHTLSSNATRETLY
From the text: Specific binding data (obtained by subtracting unspecific binding from total binding) were normalized (100% = specifically bound radioligand in the absence of competitor) and plotted over log(concentration of competitor) followed by a four-parameter logistic fit (SigmaPlot 12.5, Systat Software, San José, CA, USA) (note: in the case of 40, the lower curve plateau of the sigmoidal fit was constrained to >0). […] The Ki values from individual experiments were transformed to pKi values, followed by the calculation of mean pKi values ± SD.

in vitro = in vitro ADME; settings: human; for remaining at 1 h, 100 µM / remaining at 6 h, 100 µM / remaining at 24 h, 100 µM / remaining at 48 h, 100 µM: plasma; for remaining at 1 h, 100 µM: pH 7.4, % Intact Peptide in Plasma after 1 h; for remaining at 6 h, 100 µM: pH 7.4, % Intact Peptide in Plasma after 6 h; for remaining at 24 h, 100 µM: pH 7.4, % Intact Peptide in Plasma after 24 h; for remaining at 48 h, 100 µM: pH 7.4, % Intact Peptide in Plasma after 48 h
Experimental: The concentration of the peptides in plasma/PBS (1:2 v/v) was 80 and 4 μM (recovery determination) or 100 μM (stability tests). Data analysis was based on UV detection at 220 nm (8, 9, 11, 12, 14-18, 21-23, 38-49, and 54-57) or fluorescence detection at 275/305 nm (19 and 20). Reference samples, representing 100% recovery, were prepared in duplicate (8, 9, 11, 14-16, and 19-21) or quadruplicate (12, 17, 18, 22, 23, 38-49, and 54-57). Recovery ratios were obtained by dividing the recovery of the peptide by the recovery of IS for each individual sample (n = 3-5). The obtained recoveries and the recovery ratios are summarized in Table S2, Supplementary Materials. […] Instead, the recovery ratios determined for the previously reported, structurally closely related peptide […] [40] were used for calculating the amount of remaining intact peptide in plasma.

[1] = read-out: Ki [nM] NTS2R (converted)
[2] = read-out: pKi ± SD NTS2R (converted)
[3] = read-out: Ki [nM] NTS1R (converted)
[4] = read-out: pKi ± SD NTS1R (converted)

hNTS2R, sequence (O95665 whole entry): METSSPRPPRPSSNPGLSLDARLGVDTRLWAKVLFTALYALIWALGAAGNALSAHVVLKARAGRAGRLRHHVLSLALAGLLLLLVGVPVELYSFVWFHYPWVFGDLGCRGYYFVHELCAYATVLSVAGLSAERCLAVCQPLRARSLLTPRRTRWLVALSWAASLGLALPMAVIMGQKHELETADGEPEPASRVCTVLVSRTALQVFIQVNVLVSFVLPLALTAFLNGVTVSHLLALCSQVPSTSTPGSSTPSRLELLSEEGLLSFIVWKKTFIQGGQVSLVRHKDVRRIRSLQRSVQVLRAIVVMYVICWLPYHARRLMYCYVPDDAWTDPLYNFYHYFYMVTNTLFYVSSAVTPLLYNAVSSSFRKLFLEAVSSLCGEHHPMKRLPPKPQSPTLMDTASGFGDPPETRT

Row | Structure (SMILES) | Ki (hNTS2R; [1]) [nM] | Ki (hNTS2R; [2]) [nM] | NTS1R Selectivity (Ratio Ki (NTS2R)/Ki (NTS1R)) (hNTS1R) | Ki (hNTS1R; [3]) [nM] | remaining at 1 h, 100 µM (in vitro) [%] | remaining at 6 h, 100 µM (in vitro) [%] | remaining at 24 h, 100 µM (in vitro) [%] | remaining at 48 h, 100 µM (in vitro) [%] | Ki (hNTS1R; [4]) [nM] | % Intact Peptide in Plasma after 24 h (in vitro; 100 µM, pH 7.4) [%] | % Intact Peptide in Plasma after 48 h (in vitro; 100 µM, pH 7.4) [%] | pKi ± SD NTS2R (hNTS2R) | pKi ± SD NTS1R (hNTS1R) | % Intact Peptide in Plasma after 1 h (in vitro; 1 h, 100 µM, pH 7.4) [%] | % Intact Peptide in Plasma after 6 h (in vitro; 6 h, 100 µM, pH 7.4) [%] | lower NTS1R affinity compared to 56 (hNTS1R; 57 versus 56) [fold]
1 | CN[C@@H](CCCNC(=N)N)C(=O)N[C@@H](CCCNC(=N)NC(=O)NCCCCN)C(=O)N1CCC[C@H]1C(=O)N[C@@H](Cc1ccc(O)cc1)C(=O)N[C@H](C(=O)N[C@@H](CC(C)C)C(=O)O)C(C)(C)C [Compound 8] | 22 | 20.9 | 4.2 | 5.3 | > 99 | > 99 | > 99 | > 99 | – | – | – | – | – | – | – | –
2 | CC(C)C[C@H](NC(=O)[C@@H](NC(=O)[C@H](Cc1ccc(O)cc1)NC(=O)[C@@H]1CCCN1C(=O)[C@H](CCCNC(=N)NC(=O)NCCCCN)N(C)C(=O)[C@@H](N)CCCNC(=N)N)C(C)(C)C)C(=O)O [Compound 11] | 27 | – | 2.1 | 13 | > 99 | > 99 | > 99 | > 99 | – | – | – | – | – | – | – | –
3 | CN[C@@H](CCCNC(=N)N)C(=O)N[C@@H](CCCNC(=N)NC(=O)NCCCCNC(=O)CN1CCN(CC(=O)O)CCN(CC(=O)O)CCN(CC(=O)O)CC1)C(=O)N1CCC[C@H]1C(=O)N[C@@H](Cc1ccc(O)cc1)C(=O)N[C@H](C(=O)N[C@@H](CC(C)C)C(=O)O)C(C)(C)C [Compound 14] | 79 | – | 2.8 | 28 | – | – | – | – | 21.9 | – | – | – | – | – | – | –
4 | CN[C@@H](CCCNC(N)=NC(=O)NCCCCNC(=O)CN1CCN(CC(=O)O)CCN(CC(=O)O)CCN(CC(=O)O)CC1)C(=O)N[C@@H](CCCNC(=N)N)C(=O)N1CCC[C@H]1C(=O)N[C@@H](Cc1ccc(O)cc1)C(=O)N[C@H](C(=O)N[C@@H](CC(C)C)C(=O)O)C(C)(C)C [Compound 16] | 150 | 138 | 4.5 | 33 | – | – | – | – | 33.1 | 93 ± 3 | 84 ± 2 | – | – | – | – | –
5 | CC(C)C[C@H](NC(=O)[C@@H](NC(=O)[C@H](Cc1ccc(O)cc1)NC(=O)[C@@H]1CCCN1C(=O)[C@H](CCCNC(=N)NC(=O)NCCCCNC(=O)CN1CCN(CC(=O)O)CCN(CC(=O)O)CCN(CC(=O)O)CC1)N(C)C(=O)[C@@H](N)CCCNC(=N)N)C(C)(C)C)C(=O)O [Compound 17] | 230 | 224 | 6.4 | 36 | 97 ± 1 | 99 ± 1 | – | – | – | 98 ± 1 | – | – | – | – | – | –
6 | CN[C@@H](CCCNC(=N)N)C(=O)N[C@@H](CCCNC(N)=NC(=O)NCCCCNC(=O)CN1CCN(CC(=O)O)CCN(CC(=O)O)CCN(CC(=O)O)CC1)C(=O)N1CCC[C@H]1C(=O)N[C@@H](Cc1ccc(O)cc1)C(=O)N[C@H](C(=O)N[C@@H](CC(C)C)C(=O)O)C(C)(C)C [Compound 19] | 73 | – | 4.6 | 16 | > 99 | > 99 | 36 ± 1 | 4.2 ± 0.6 | – | – | – | 7.16 ± 0.18 | 7.80 ± 0.03 | – | – | –
7 | CC(C)C[C@H](NC(=O)[C@@H](NC(=O)[C@H](Cc1ccc(O)cc1)NC(=O)[C@@H]1CCCN1C(=O)[C@H](CCCNC(N)=NC(=O)NCCCCNC(=O)CN1CCN(CC(=O)O)CCN(CC(=O)O)CCN(CC(=O)O)CC1)N(C)C(=O)[C@@H](N)CCCNC(=N)N)C(C)(C)C)C(=O)O [Compound 22] | 88 | – | 4.4 | 20 | – | – | – | – | – | 30 ± 1 | 7.7 ± 1.0 | 7.08 ± 0.16 | 7.70 ± 0.07 | >99 | 87 ± 2 | –
8 | CN[C@@H](CCCNC(=N)N)C(=O)N[C@@H](CCCNC(=N)N)C(=O)N1CCC[C@H]1C(=O)N[C@@H](Cc1ccc(O)cc1)C(=O)N[C@H](C(=O)N[C@@H](CC(C)C)C(=O)O)C1CCC1 [Compound 42] | – | – | – | 1.1 | 91 ± 1 | 79 ± 1 | 32 ± 1 | < 1 | 1.05 | – | – | – | – | – | – | –
9 | CN[C@@H](CCCNC(=N)N)C(=O)N[C@@H](CCCNC(=N)N)C(=O)N1CCC[C@H]1C(=O)N[C@@H](Cc1ccc(O)cc1)C(=O)N[C@H](C(=O)N[C@@H](CC(C)C)C(=O)O)C1CCCC1 [Compound 43] | – | – | – | 1.2 | 99 ± 1 | 95 ± 1 | 78 ± 1 | 58 ± 1 | – | – | – | – | – | – | – | –
10 | CN[C@@H](CCCNC(=N)N)C(=O)N[C@@H](CCCNC(=N)N)C(=O)N1CCC[C@H]1C(=O)N[C@@H](Cc1ccc(O)cc1)C(=O)N[C@@](C)(CC(C)C)C(=O)N[C@@H](CC(C)C)C(=O)O [Compound 44] (HELM PEPTIDE1{[meR].R.P.Y.[CC(C)C[C@](C)(N[*:1])C(=O)[*:2]].L}$$$$V2.0) | – | – | – | > 1000 | 94 ± 1 | 91 ± 4 | 91 ± 1 | 87 ± 1 | > 1000 | – | – | – | – | – | – | –
11 | CC[C@](C)(NC(=O)[C@H](Cc1ccc(O)cc1)NC(=O)[C@@H]1CCCN1C(=O)[C@H](CCCNC(=N)N)NC(=O)[C@H](CCCNC(=N)N)NC)C(=O)N[C@@H](CC(C)C)C(=O)O [Compound 45] | – | – | – | > 1000 | 93 ± 1 | 92 ± 1 | 86 ± 1 | 77 ± 1 | > 1000 | – | – | – | – | – | – | –
12 | CC[C@H](C)[C@H](NC(=O)[C@H](Cc1ccc(O)cc1)NC(=O)[C@@H]1CCCN1C(=O)[C@H](CCCNC(=N)N)NC(=O)[C@H](CCCNC(=N)N)NC)C(=O)N[C@@H](CC1CC1)C(=O)O [Compound 46] | – | – | – | 2.6 | 25 ± 2 | < 1 | < 1 | < 1 | 2.34 | – | – | – | – | – | – | –
13 | CN[C@@H](CCCNC(N)=NC(=O)NCCCCN)C(=O)N[C@@H](CCCNC(=N)N)C(=O)N1CCC[C@H]1C(=O)N[C@H](C(=O)N[C@H](C(=O)N[C@@H](CC(C)C)C(=O)O)C(C)(C)C)C(C)(C)c1ccc(O)cc1 [Compound 52] | 6.5 | 6.03 | 1.2 | 5.4 | – | – | – | – | 5.01 | – | – | – | – | – | – | –
14 | CN[C@@H](CCCNC(N)=NC(=O)NCCCCN)C(=O)N[C@@H](CCCNC(=N)N)C(=O)N1CCC[C@H]1C(=O)N[C@@H](C(=O)N[C@H](C(=O)N[C@@H](CC(C)C)C(=O)O)C(C)(C)C)C(C)(C)c1ccc(O)cc1 [Compound 53] | 450 | 398 | – | – | – | – | – | – | – | – | – | – | – | – | – | –
15 | CN[C@@H](CCCNC(N)=NC(=O)NCCCCNC(=O)CN1CCN(CC(=O)O)CCN(CC(=O)O)CCN(CC(=O)O)CC1)C(=O)N[C@@H](CCCNC(=N)N)C(=O)N1CCC[C@H]1C(=O)N[C@H](C(=O)N[C@H](C(=O)N[C@@H](CC(C)C)C(=O)O)C(C)(C)C)C(C)(C)c1ccc(O)cc1 [Compound 57] | – | – | – | 21 | > 99 | > 99 | 68 ± 1 | < 1 | – | – | – | – | 7.67 ± 0.04 | – | – | 18
